This note sets out measurements from patent US9918968B2, “Rapamycin analogs targeting proteasome function in the treatment of cancer” (THE BOARD OF REGENTS OF THE UNIVERSITY OF TEXAS SYSTEM, priority 2013, dated 2018).

This test has as its system T1, 20S core with 19S, 11S, tRpt5 or tPA200.
T1 construct: purchased Enzo LifeSciences (20S, 11S); Boston Biochemicals (19S complex)
Briefly: Activation of 20S core ChT-L activity by α face ligands (19S, 11S, tRpt5, tPA200). The format is biochemical, human. The note with it: 10 μM derivative. The procedure: Human purified proteasome complexes were purchased from Enzo LifeSciences or Boston Biochemicals (19S complex). BODIPY-casein (Invitrogen/Molecular Probes) was used as a model protein substrate, with increasing fluorescence of BODIPY labeled peptide products of degradation monitored for up to 8 hours at 37° C. The peptidase activity of the enzyme was measured as arbitrary intensity units of the released fluorescent group 7-amino-4-methylcoumarin (AMC) from peptide substrates, as described. The common substrates specific for the three kinds of active sites: succinyl-LeuLeuValTyr-7-amido-4-methylcoumarin (Suc-LLVY-MCA; for the ChT-L activity; Bachem), butoxycarbonyl-LeuArgArg-MCA (BocLRR-MCA; for T-L; Bachem) and carbobenzoxy-LeuLeuGlu-MCA (CbzLLE-MCA; for PGPH; Enzo Life Sciences International, Inc.) were used at 100 μM final concentrations, unless stated otherwise (Gaczynska and Osmulski, 2005). Proteasome substrates, rapamycin, its derivatives, and competing peptides were stocked in DMSO and diluted 100-fold in the reaction mixtures. The Rpt5 and PA200 C-terminal peptides were synthesized in the Departmental Peptide Synthesis Core using the standard SPPS chemistry. To activate the latent 20S proteasome, 0.005% (final concentration) of sodium dodecyl sulfate (SDS) was used. The reactions were carried out in 96 well plates, with 2.3 nM proteasome and other components as indicated dissolved in 50 mM Tris-HCl buffer (pH 8.0) and incubated at 37° C. for up to 1 hour. The fluorescence of products was monitored every 2 minutes with a Fluoroskan Ascent plate reader. Reaction rates were calculated from smoothed linear segment of kinetic curves using OriginPro 8.6 (OriginLabs, Northampton, Mass.). For the determination of an inhibition type, at least six distinct substrate concentrations and two inhibitor concentrations were used. The kinetic parameters of inhibition were analyzed in terms of the Michaelis-Menten formalism using the enzyme kinetic module of SigmaPlot v.12 (Systat Software, Inc, San Jose, Calif.) to perform the respective calculations.
De novo assembly of 19S from subunits is a complex process assisted by chaperones. In vitro, and likely also in cells, the 26S can also be reconstructed from 20S and the already-assembled 19S particle in the presence of ATP (Smith et al., 2005). Enhancement of the peptidase activities of the core proteasome is an established test for efficiency of the in vitro reconstruction. […] In contrast, a pretreatment of 20S with 5 μM rapamycin before adding ATP and 19S totally abrogated the activation, leaving the proteasome almost 40% inhibited instead (FIG. 6).

`CO[C@@H](C[C@@H]1CC[C@@H](C)[C@](O)(C(=O)C(=O)N2CCCC[C@H]2C(=O)[O-])O1)/C(C)=C/C=C/C=C/[C@@H](C)C[C@@H](C)C(=O)[C@H](OC)[C@H](O)/C(C)=C/[C@@H](C)C(=O)/C=C/[C@H](C)C[C@@H]1CC[C@@H](O)[C@H](OC)C1.[Na+]` [seco-rapamycin]: the “lowering of activation by tRpt5” value (10 μM tRpt5) is recorded as “about 30%”. Also, the “inhibition of proteasome with or without tPA200” value (presence or absence of 10 μM tPA200) is reported as “about 40%”.
